The record followed here is ChEMBL document CHEMBL1136863, “Identification and SAR of squarate inhibitors of mitogen activated protein kinase-activated protein kinase 2 (MK-2)” (Bioorg Med Chem, 2009).

Each structure is given as a SMILES string.

In general, IC50 refers to the concentration needed to halve the response being measured. Low readings indicate higher potency, high ones lower potency. Broadly, the inhibition is the share of the control response that was lost under treatment. A higher inhibition goes with strong suppression.

One series has as its system THP-1. Kind of series: Inhibition of LPS-stimulated TNFalpha production in human THP1 cells.
The target in series [1] is MAP kinase-activated protein kinase 2 (Homo sapiens, UniProt P49137).
Description: Inhibition of human recombinant MK2
Series [2] has as its target Mitogen-activated protein kinase 1 (Homo sapiens, UniProt P28482). As to the kind of experiment: Inhibition of ERK2.
Series [3] concerns the target Ribosomal protein S6 kinase alpha-1 (Homo sapiens, UniProt Q15418). Kind of series: Inhibition of RSK1.
Series [4] has as its target Casein kinase I isoform gamma-1 (Homo sapiens, UniProt Q9HCP0). Kind of series: Inhibition of CK1-gamma1.
The target in series [5] is Rho-associated protein kinase 1 (Homo sapiens, UniProt Q13464). Kind of series: Inhibition of ROCK1.
Chain of Rho-associated protein kinase 1 (Q13464 whole entry): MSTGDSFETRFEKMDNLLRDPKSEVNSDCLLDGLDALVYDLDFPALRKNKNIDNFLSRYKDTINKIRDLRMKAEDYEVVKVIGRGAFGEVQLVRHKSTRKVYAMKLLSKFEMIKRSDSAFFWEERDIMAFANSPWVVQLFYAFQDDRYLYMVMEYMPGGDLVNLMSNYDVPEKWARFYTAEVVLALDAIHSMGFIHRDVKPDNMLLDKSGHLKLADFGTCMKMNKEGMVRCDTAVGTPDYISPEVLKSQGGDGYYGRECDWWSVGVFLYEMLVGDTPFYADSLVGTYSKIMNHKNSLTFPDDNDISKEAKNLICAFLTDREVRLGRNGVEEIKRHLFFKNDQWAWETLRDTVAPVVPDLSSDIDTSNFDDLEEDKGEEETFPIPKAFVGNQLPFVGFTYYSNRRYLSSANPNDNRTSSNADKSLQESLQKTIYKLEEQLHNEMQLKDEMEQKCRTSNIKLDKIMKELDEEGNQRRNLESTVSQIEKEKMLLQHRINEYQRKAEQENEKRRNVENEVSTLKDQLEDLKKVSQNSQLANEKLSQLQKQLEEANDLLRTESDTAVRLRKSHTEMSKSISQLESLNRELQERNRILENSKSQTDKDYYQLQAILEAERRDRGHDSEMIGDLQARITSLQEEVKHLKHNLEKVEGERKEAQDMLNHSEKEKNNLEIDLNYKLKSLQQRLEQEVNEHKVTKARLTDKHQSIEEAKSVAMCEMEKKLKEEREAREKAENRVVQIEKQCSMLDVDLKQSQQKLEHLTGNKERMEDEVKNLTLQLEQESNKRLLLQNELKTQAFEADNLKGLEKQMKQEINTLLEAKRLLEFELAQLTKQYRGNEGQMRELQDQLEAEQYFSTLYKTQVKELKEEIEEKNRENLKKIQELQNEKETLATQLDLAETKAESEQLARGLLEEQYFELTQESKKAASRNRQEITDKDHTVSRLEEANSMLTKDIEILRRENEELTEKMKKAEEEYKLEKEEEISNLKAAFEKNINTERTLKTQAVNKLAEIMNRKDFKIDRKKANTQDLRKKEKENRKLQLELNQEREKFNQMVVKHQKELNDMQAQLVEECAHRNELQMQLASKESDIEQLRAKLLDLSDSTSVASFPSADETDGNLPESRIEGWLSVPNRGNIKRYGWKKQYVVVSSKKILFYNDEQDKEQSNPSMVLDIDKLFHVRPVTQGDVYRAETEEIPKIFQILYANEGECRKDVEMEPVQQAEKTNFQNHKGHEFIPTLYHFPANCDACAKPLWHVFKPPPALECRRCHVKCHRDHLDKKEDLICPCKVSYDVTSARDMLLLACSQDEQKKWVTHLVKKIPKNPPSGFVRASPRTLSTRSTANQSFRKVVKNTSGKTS
Series [6] concerns the target Mitogen-activated protein kinase 14 (Homo sapiens, UniProt Q16539). Kind of series: Inhibition of p38alpha.
Series [7] deals with Protein kinase C alpha type (Homo sapiens, UniProt P17252). Kind of series: Inhibition of PKCalpha.
The target in series [8] is T1, Inhibitor of nuclear factor kappa-B kinase subunit alpha (Homo sapiens, UniProt O15111).
T1 sequence (O15111 whole entry): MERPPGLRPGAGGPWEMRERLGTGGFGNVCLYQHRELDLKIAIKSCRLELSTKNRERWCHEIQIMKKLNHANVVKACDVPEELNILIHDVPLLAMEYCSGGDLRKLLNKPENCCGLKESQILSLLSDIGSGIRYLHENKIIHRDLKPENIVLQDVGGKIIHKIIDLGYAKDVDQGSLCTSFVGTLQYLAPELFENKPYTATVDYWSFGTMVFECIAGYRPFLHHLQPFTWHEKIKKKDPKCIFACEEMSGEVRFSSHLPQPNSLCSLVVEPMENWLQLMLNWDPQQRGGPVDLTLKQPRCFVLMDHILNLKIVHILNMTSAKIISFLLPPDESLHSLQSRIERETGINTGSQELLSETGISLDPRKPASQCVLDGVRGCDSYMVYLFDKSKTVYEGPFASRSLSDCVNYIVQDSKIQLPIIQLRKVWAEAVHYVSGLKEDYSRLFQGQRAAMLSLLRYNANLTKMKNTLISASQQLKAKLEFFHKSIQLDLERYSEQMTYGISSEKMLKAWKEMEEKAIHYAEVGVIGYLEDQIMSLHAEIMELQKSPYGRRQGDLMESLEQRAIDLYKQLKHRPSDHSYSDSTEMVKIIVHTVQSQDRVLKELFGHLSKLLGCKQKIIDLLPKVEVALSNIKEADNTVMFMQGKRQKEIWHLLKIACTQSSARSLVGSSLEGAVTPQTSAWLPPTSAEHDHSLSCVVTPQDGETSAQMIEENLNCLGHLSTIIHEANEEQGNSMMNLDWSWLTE
As to the kind of experiment: Inhibition of IKKalpha.

For a further series, the target named is Aurora kinase B (Homo sapiens, UniProt Q96GD4). Kind of series: Inhibition of Aurora B.
The target in series [9] is Platelet-derived growth factor receptor alpha (Homo sapiens, UniProt P16234). As to the kind of experiment: Inhibition of PDGFRalpha.
Series [10] deals with Proto-oncogene tyrosine-protein kinase Src (Homo sapiens, UniProt P12931). As to the kind of experiment: Inhibition of SRC.
Chain of Proto-oncogene tyrosine-protein kinase Src (P12931 2-536 limits assumed): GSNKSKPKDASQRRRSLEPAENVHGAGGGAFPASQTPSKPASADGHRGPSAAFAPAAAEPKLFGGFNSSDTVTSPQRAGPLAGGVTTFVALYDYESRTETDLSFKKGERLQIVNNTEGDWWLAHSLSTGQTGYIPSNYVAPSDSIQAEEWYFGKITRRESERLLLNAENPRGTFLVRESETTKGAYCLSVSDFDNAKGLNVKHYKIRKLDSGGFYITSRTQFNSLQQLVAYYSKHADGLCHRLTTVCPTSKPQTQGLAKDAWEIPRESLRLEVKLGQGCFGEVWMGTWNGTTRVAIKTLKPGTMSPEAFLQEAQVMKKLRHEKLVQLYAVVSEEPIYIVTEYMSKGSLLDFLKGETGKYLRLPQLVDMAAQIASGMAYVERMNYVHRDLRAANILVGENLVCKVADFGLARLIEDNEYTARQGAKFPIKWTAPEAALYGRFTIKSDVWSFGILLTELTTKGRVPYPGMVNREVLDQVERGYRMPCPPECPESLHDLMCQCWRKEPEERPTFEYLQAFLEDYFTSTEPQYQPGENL
The target in series [11] is Tyrosine-protein kinase Fyn (Homo sapiens, UniProt P06241). Kind of series: Inhibition of FYN.
Chain of Tyrosine-protein kinase Fyn (P06241 whole entry): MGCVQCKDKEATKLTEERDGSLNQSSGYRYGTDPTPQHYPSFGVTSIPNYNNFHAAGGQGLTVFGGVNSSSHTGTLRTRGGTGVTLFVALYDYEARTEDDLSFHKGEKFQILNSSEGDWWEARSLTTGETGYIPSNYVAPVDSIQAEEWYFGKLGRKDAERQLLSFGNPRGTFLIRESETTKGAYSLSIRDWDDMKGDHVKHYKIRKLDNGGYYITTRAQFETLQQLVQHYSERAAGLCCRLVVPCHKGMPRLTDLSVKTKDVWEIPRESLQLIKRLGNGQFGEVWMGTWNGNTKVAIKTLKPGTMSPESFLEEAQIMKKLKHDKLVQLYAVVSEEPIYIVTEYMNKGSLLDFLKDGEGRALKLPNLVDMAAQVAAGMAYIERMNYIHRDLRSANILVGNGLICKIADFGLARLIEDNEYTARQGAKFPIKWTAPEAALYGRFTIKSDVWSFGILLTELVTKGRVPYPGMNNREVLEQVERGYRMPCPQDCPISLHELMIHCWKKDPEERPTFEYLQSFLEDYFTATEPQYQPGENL
In another series the target is Cytochrome P450 3A4 (Homo sapiens, UniProt P08684). Kind of series: Inhibition of CYP3A4. Format: ADME.
Chain of Cytochrome P450 3A4 (P08684 whole entry): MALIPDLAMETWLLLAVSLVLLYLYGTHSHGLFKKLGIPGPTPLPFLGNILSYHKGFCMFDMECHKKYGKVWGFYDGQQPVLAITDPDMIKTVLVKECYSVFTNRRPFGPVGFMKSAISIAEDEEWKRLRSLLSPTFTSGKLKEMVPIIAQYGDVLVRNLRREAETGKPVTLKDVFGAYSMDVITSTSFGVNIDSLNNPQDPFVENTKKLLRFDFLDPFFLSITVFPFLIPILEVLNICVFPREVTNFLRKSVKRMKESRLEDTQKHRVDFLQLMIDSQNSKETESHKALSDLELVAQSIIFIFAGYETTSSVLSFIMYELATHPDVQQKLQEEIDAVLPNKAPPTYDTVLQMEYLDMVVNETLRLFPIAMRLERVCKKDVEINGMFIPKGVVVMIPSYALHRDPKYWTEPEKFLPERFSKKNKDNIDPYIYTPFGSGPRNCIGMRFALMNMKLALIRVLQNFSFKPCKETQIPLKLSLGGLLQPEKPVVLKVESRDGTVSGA
The next series deals with Cytochrome P450 2C9 (Homo sapiens, UniProt P11712). Kind of series: Inhibition of CYP2C9. Type of series: ADME.
The target in another series is Cytochrome P450 2D6 (Homo sapiens, UniProt P10635). As to the kind of experiment: Inhibition of CYP2D6. Format: ADME.
Chain of Cytochrome P450 2D6 (P10635 whole entry): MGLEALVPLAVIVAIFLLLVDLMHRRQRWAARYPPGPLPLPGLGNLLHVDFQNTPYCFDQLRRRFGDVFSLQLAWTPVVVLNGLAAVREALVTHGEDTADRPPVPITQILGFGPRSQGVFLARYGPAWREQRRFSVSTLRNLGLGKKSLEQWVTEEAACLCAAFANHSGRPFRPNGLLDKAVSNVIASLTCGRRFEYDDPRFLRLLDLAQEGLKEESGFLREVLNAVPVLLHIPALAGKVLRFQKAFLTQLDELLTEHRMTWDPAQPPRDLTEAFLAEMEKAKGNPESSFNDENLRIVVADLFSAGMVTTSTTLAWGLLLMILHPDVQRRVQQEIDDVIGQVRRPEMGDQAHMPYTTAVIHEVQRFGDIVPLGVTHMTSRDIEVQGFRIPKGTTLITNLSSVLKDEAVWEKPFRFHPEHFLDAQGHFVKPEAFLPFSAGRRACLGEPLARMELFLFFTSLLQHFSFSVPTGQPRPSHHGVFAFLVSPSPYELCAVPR
Another series concerns the target CYP2C9 (Homo sapiens, UniProt P11712). Kind of series: Inhibition of CYP2C9 at 3 uM. Type of series: ADME.
The target in another series is CYP3A4 (Homo sapiens, UniProt P08684). As to the kind of experiment: Inhibition of CYP3A4 at 3 uM. Type of series: ADME.
Chain of CYP3A4 (P08684 whole entry): as the sequence (P08684 whole entry) above
A further series addresses CYP2D6 (Homo sapiens, UniProt P10635). As to the kind of experiment: Inhibition of CYP2D6 at 3 uM. Type of series: ADME.

Chain of Casein kinase I isoform gamma-1 (Q9HCP0 whole entry, canonical isoform): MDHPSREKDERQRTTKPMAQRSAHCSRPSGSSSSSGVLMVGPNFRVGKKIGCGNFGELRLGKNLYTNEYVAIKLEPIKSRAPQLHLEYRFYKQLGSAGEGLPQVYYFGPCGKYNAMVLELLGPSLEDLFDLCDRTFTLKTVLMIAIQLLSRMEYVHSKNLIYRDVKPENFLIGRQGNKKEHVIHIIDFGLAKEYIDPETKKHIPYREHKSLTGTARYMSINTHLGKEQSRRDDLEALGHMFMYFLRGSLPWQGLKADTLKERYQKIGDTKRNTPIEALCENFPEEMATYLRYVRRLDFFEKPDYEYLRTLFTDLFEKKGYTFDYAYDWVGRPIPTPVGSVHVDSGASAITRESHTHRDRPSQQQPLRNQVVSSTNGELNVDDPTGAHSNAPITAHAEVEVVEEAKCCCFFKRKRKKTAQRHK
Chain of Mitogen-activated protein kinase 14 (Q16539 whole entry): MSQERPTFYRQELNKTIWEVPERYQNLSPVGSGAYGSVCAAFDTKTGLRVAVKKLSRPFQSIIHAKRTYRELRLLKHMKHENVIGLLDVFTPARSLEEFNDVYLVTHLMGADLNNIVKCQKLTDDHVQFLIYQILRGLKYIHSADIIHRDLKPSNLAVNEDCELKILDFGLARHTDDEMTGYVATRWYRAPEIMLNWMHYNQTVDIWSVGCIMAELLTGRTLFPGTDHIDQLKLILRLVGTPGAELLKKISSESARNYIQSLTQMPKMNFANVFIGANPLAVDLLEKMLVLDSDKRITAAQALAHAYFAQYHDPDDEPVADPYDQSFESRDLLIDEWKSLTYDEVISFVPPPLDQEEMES
Chain of CYP2D6 (P10635 whole entry): as the sequence (P10635 whole entry) above

The compound `C[C@@H](Nc1c(Nc2ccnc(Nc3ccncn3)c2)c(=O)c1=O)c1ccccc1` displayed an IC50 in the series with THP-1 of 1.1 µM.

`C[C@H](c1ccccc1)N(C)c1c(Nc2ccncc2)c(=O)c1=O` displayed an IC50 in series [1] of over 100 µM.

With `C[C@@H](Nc1c(Nc2ccnc(-c3ccco3)c2)c(=O)c1=O)c1ccccc1`, the concentration for half-maximal inhibition (IC50) in series [2] is 35 µM; in series [1], 5.3 µM; in the series on THP-1, 2.1 µM; in [3] it was over 50 µM; in series [4] it was 4.9 µM; in series [5], over 50 µM. The IC50 in series [6] was over 50 µM; in series [7], over 50 µM; in [8], over 50 µM; at Aurora kinase B it was 8.8 µM; in series [9] it was 27.1 µM; in series [10], over 50 µM. In series [11], this compound came in with a half-maximal inhibitory concentration (IC50) of over 50 µM.

With `C[C@@H](Nc1c(Nc2ccnc(Cl)c2)c(=O)c1=O)c1ccccc1`, the IC50 in series [1] was over 100 µM.

As for `C[C@@H](Nc1c(Nc2ccn[nH]2)c(=O)c1=O)c1ccccc1`, the 50% inhibitory concentration (IC50) is over 100 µM in [1], 40 µM at Cytochrome P450 3A4 and 12 µM against Cytochrome P450 2C9.

Regarding `C[C@@H](Nc1c(Nc2ccncc2)c(=O)c1=O)c1ccccc1`, the IC50 with THP-1 is 10.8 µM; in series [3], 0.81 µM; in series [6], over 50 µM; at Cytochrome P450 3A4, 1.3 µM; against Cytochrome P450 2D6, 3.3 µM; in series [7] it was over 50 µM. For the same compound, the IC50 was over 50 µM in series [8]; 40.5 µM in series [9]; over 50 µM in [10]; 0.6 µM against Cytochrome P450 2C9; over 50 µM in series [11].

`NC(=O)C(Nc1c(Nc2ccncc2)c(=O)c1=O)c1ccccc1` (configuration not stated): the IC50 in series [2] is 6.3 µM; in series [1], 4.5 µM; in the series with THP-1 it was over 40 µM; in series [3], 0.78 µM; in [4], 0.52 µM; in series [6] it was over 50 µM. Moreover, the IC50 at Cytochrome P450 3A4 is 8.6 µM; against Cytochrome P450 2D6 it was over 10 µM; in series [8] it was over 50 µM; against Aurora kinase B, 6 µM; in series [9] it was 44 µM; in [10], over 50 µM. Also, the half-inhibitory concentration (IC50) against Cytochrome P450 2C9 was 5.1 µM; in series [11], over 50 µM.

With `NC(=O)C(Nc1c(Nc2ccncc2)c(=O)c1=O)c1cccc(O)c1` (configuration not stated), the IC50 came to 4.2 µM in series [2]; 0.39 µM in series [1]; 17 µM with THP-1; 0.29 µM in [3]; 0.16 µM in series [4]; 0.06 µM in series [5]. Also, the IC50 in series [6] was over 50 µM; against Cytochrome P450 3A4, over 10 µM; on Cytochrome P450 2D6, over 10 µM; in series [7] it was 33.6 µM; in series [8], over 50 µM; at Aurora kinase B, 1.4 µM. For the same compound, the IC50 in series [9] is 11.1 µM; in [10], over 50 µM; against Cytochrome P450 2C9, 6.5 µM; in series [11] it was over 50 µM.

In turn, `CC(Nc1c(Nc2ccncc2)c(=O)c1=O)c1cccc(O)c1` (configuration not stated) registered a half-maximal inhibitory concentration (IC50) in the series on THP-1 of 34 µM.

Compound `C[C@@H](Nc1c(Nc2cccnc2)c(=O)c1=O)c1ccccc1` returned an IC50 in series [1] of over 100 µM. For the same compound, the inhibition at 3 µM is 1% at CYP2C9, 16% on CYP3A4 and 26% at CYP2D6.

As to `C[C@@H](Nc1c(Nc2ccnc(-c3ccccc3F)c2)c(=O)c1=O)c1ccccc1`, the IC50 in series [2] was over 50 µM; in series [1], 5.8 µM; in the series on THP-1, 2.2 µM; in [3], over 50 µM; in series [4] it was over 50 µM; in series [5], over 50 µM. For the same compound, the concentration for half-maximal inhibition (IC50) in [6] is 21.7 µM; in [7], over 50 µM; in series [8], over 50 µM; on Aurora kinase B, over 50 µM; in series [9] it was over 50 µM; in [10] it was over 50 µM. For the same compound, the 50% inhibitory concentration (IC50) in series [11] is over 50 µM.

As for `C[C@@H](Nc1c(Nc2ccnc(-c3ccsc3)c2)c(=O)c1=O)c1ccccc1`, the IC50 in series [2] is over 50 µM; in series [1], 5.4 µM; in series [3] it was over 50 µM; in series [4], 11.6 µM; in series [5], over 50 µM; in series [6], over 50 µM. The concentration for half-maximal inhibition (IC50) is over 50 µM in [7]; over 50 µM in series [8]; 10.8 µM on Aurora kinase B; 36.2 µM in series [9]; over 50 µM in series [10]; 15.3 µM in [11].

As to `C[C@@H](Nc1c(N(C)c2ccncc2)c(=O)c1=O)c1ccccc1`, the IC50 in series [1] is over 100 µM.

The compound `C[C@@H](Nc1c(Nc2ccncn2)c(=O)c1=O)c1ccccc1` gave a half-inhibitory concentration (IC50) in [1] of over 100 µM.
